According to patent US20130217646A1, “COMBINATION OF ALOVUDINE AND ZIDOVUDINE IN A MOLAR RATIO OF 1:100 TO 1:350” (MEDIVIR AB, priority 2006, published 2013):
Read-outs that look alike come from different tables or passages of the source.

Tested on: MT4 cell line
Conditions: human, 14 days
Description: Several suitable cell lines supporting HIV growth are readily available including lines include those supporting HIV growth including the CEM×174 cell line derived from Swedish Institute for Infectious Disease Control (SMI) Sweden, MT-4 (commercially available) and Hep G2 (commercially available).
In short, 100 ul cells are seeded in a 96-well plate at a concentration of 1×10^4 cells/ml, at exponential growth were cultured in RPMI 1640 medium (from Gibco) supplemented with 10% heat-inactivated fetal bovine serum (from Gibco) and Penicillin-Streptomycin (from Gibco). The medium is changed every 3 or 4 days, and cells are subcultured once a week at a dilution of 1:10. All cultures are routinely checked for Mycoplasma infection and grown at 37° C. in a humidified 5% CO2 atmosphere.
All drugs tested were first dissolved at 10 mM in dimethyl sulfoxide (DMSO) before further dilution to the appropriate concentration in the culture medium. The analysis of mitochondrial DNA was performed by using Taqman technology as previously reported (Zhang, H et al. Mol. Pharmacol 1994 46:1063-1069), with modifications, and is briefly described below.
The cells are treated for a series of durations with the test drugs, such as alovudine, fosalvudine, zidovudine, abacavir etc or various combinations of alovudine/fosalvudine and zidovudine/abacavir. The various ratios indicated in the respective Tables. After 14 days of drug exposure, cells are collected. Total cellular DNA was prepared using the QiAamp DNA blood Mini kit (QIAGEN, Chatsworth, Calif.), following the supplier's instructions for the Qiagene Blood&Body Fluid Spin Protocol, and subject to DNA amplification.
The probes of mitochondrial DNA Taqman and human nuclear DNA were prepared from Applied Biosystems, which employs an internal quenched DNA probe utilizing fluorescence resonance energy transfer (FRET) to generate a spectroscopic response due to 5′->3′ exonuclease activity of Taq DNA polymerase during DNA amplification. […] It is a fully integrated system for real-time detection of PCR using ABI PRISM 7700 and TaqMan reagents for the fluorogenic 5′ nuclease assay.
The cell growth was controlled by cellular nuclear DNA ([…] ribosomal DNA).
The above described assay was performed in the MT4 cell line derived from a T lymphocyte.

Cc1cn([C@H]2C[C@H](N=[N+]=[N-])[C@@H](CO)O2)c(=O)[nH]c1=O [zidovudine, 2′3′-dideoxy-3′-azido-thymidine]
Inhibition of mitochondrial DNA % (1 uM): 0%
Inhibition of mitochondrial DNA % (3 uM): 0%
% Reduction mt/n DNA (10 uM): 0%
% reduction mt DNA (10 uM): 0%
% reduction n DNA (10 uM): 40%
Inhibition of mitochondrial DNA % (10 uM): 0%
Ratio Mitochondrial: Nuclear DNA (10 uM): 0.96
Relative no. copies mt DNA (10 uM): 856782
Relative no. copies n DNA (10 uM): 891446
% Reduction mt/n DNA (30 uM): 0%
% reduction mt DNA (30 uM): 0%
% reduction n DNA (30 uM): 43%
Inhibition of mitochondrial DNA, % (30 uM): 0%
Mean qty (mitochondrial DNA) (30 uM): 1410000
Ratio Mitochondrial: Nuclear DNA (30 uM): 1.19
Relative no. copies mt DNA (30 uM): 993321
Relative no. copies n DNA (30 uM): 836935
% Reduction mt/n DNA (60 uM): 0%
% reduction mt DNA (60 uM): 4%
% reduction n DNA (60 uM): 40%
Ratio Mitochondrial: Nuclear DNA (60 uM): 0.84
Relative no. copies mt DNA (60 uM): 748730
Relative no. copies n DNA (60 uM): 890663

Cc1cn([C@H]2C[C@H](F)[C@@H](CO)O2)c(=O)[nH]c1=O [alovudine, 2′,3′-dideoxy-3′-fluorothymidine]
% Reduction mt/n DNA (0.1 uM): 13%
% reduction mt DNA (0.1 uM): 44%
% reduction n DNA (0.1 uM): 35%
Inhibition of mitochondrial DNA % (0.1 uM): 70%
Inhibition of mitochondrial DNA, % (0.1 uM): 40%
Mean qty mt DNA (0.1 uM): 549900
Ratio Mitochondrial: Nuclear DNA (0.1 uM): 0.45
Relative no. copies mt DNA (0.1 uM): 434709
Relative no. copies n DNA (0.1 uM): 956331
Inhibition of mitochondrial DNA, % (0.2 uM): 82%
Mean qty mt DNA (0.2 uM): 187574
% Reduction mt/n DNA (0.3 uM): 59%
% reduction mt DNA (0.3 uM): 68%
% reduction n DNA (0.3 uM): 22%
Inhibition of mitochondrial DNA % (0.3 uM): 95%
Ratio Mitochondrial: Nuclear DNA (0.3 uM): 0.21
Relative no. copies mt DNA (0.3 uM): 247481
Relative no. copies n DNA (0.3 uM): 1160000
% Reduction mt/n DNA (0.6 uM): 89%
% reduction mt DNA (0.6 uM): 88%
% reduction n DNA (0.6 uM): 0%
Ratio Mitochondrial: Nuclear DNA (0.6 uM): 0.06
Relative no. copies mt DNA (0.6 uM): 96998
Relative no. copies n DNA (0.6 uM): 1740000
Inhibition of mitochondrial DNA % (1 uM): 100%

Nc1nc(NC2CC2)c2ncn([C@H]3C=C[C@@H](CO)C3)c2n1 [abacavir]
Inhibition of mitochondrial DNA, % (1 uM): 18%
Mean qty mt DNA (1 uM): 756544
Inhibition of mitochondrial DNA, % (20 uM): 51%
Mean qty mt DNA (20 uM): 506181
